Data set [1] deals with T1, Adenosine A1 receptor (human) membrane (Homo sapiens, UniProt P30542).
T1 construct: purchased PerkinElmer ES-010-M400UA
T1 sequence (P30542 1-326): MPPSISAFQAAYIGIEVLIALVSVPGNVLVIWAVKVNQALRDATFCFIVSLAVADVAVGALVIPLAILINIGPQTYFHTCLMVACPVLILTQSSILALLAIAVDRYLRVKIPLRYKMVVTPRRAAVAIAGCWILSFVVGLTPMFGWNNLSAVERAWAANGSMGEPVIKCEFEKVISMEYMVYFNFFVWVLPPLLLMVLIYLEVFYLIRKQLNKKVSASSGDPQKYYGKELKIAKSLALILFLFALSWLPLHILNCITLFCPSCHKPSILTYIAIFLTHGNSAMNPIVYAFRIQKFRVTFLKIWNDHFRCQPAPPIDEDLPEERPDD
The experiment in a line: Determination of competitive inhibition constant (Ki) for adenosine A1 receptor, [3H]-DPCPX radioligand. As to conditions: 1.0 nM [3H]-DPCPX. The format is binding. The protocol: (§1) Test Example 1: Determination of Competitive Inhibition Constant (Ki) for Adenosine A1 and A2a Receptors
[^3H]-DPCPX (PerkinElmer, NET974250UC),
Adenosine A1 receptor (human) membrane (PerkinElmer, ES-010-M400UA),
assay buffer for A1 (25 mM HEPES, 5 mM MgCl2, 1 mM CaCl2, 100 mM NaCl, pH7.4), used to dilute adenosine A1 receptor (human) membrane and [^3H]-DPCPX;
wash buffer for A1 (25 mM HEPES, 5 mM MgCl2, 1 mM CaCl2, 100 mM NaCl, pH7.4);
(§2) Adenosine A1 receptor membrane was diluted to 0.025 μg/μl with assay buffer for A1, and Adenosine A2a receptor membrane was diluted to 0.05 μg/μl with assay buffer for A2a, so as to obtain Adenosine A1 receptor membrane dilution and Adenosine A2a receptor membrane dilution.
(§3) The compound to be tested and CGS-15943 were diluted with DMSO, and 1 W of the compound to be tested, high value control (0.5% DMSO), low value control (1000 nM CGS-15943) were added to a 96-well plate, and 100 W of Adenosine A1 receptor membrane dilution (containing 2.5 μg of membrane) was added to each well of the 96-well plate to obtain A1 detection plate; following the same steps, 100 W of Adenosine A2a receptor membrane dilution (containing 5.0 μg membrane) was added to each well of the 96-well plate to obtain A2a detection plate.
(§4) To the A1 detection plate, 100 μl of radioisotope-labeled ligand [^3H]-DPCPX (diluted with assay buffer for A1, working concentration of which was 1.0 nM) was added; and to the A2a detection plate, 100 μl of radioisotope-labeled ligand [^3H]-CGS-21680 (diluted with assay buffer for A2a, working concentration of which was 6.0 nM) was added. The A1 and A2a detection plates were sealed with tape, and incubated at room temperature for 1 h and 2 h, respectively.
(§5) Unifilter-96 GF/C filter plates were prepared, 50 μl of 0.3% PEI was added to each well of the Unifilter-96 GF/C filter plates, and the resulting filter plates were incubated at room temperature for not less than 0.5 h.
(§6) After the incubation was completed, the reaction solution was transferred from the A1 detection plate and the A2a detection plate to two Unifilter-96 GF/C filter plates, and washed with pre-cooled wash buffer for A1 and wash buffer for A2a, and then the filter plates were dried, sealed at bottom, then 50 W of Microscint 20 fluid scintillation cocktail was added, and then the filter plates were sealed at top, and counted by MicroBeta2 Reader.
(§7) Inhibition rate %=100−(signal value of test well−signal average value of low value control)/(signal average value of high value control−signal average value of low value control)*100.
(§8) EXCEL XLfit was used to fit IC50.
(§9) The calculation formula for competitive inhibition constant (Ki) was: Ki=IC50/(1+concentration of isotope-labeled ligand/Kd), wherein Kd was the dissociation constant of the isotope-labeled ligand.

Data set [2] deals with T2, Adenosine A2a receptor (human) membrane (Homo sapiens, UniProt P29274).
T2 construct: purchased PerkinElmer RBHA2AM400UA
The experiment in a line: Determination of competitive inhibition constant (Ki) for adenosine A2a receptor, [3H]-CGS-21680 radioligand. The format is binding. The settings on record: for pKi: human A2a receptor membrane, 6.0 nM [3H]-CGS-21680, read-out: Ki(A2a); for Ki(A1)/Ki(A2a): selectivity ratio A1 over A2a. The protocol:
as §1
Adenosine A2a receptor (human) membrane (PerkinElmer, RBHA2AM400UA),
assay buffer for A2a (50 mM Tris-HCl, 10 mM MgCl2, 1 mM EDTA, pH7.4), used to dilute adenosine A2a receptor (human) membrane (human origin) and [^3H]-CGS-21680; and
wash buffer for A2a (50 mM Tris-HCl, 154 mM NaCl, pH7.4).
as §2, §3, §4, §5, §6, §7, §8, §9

Another data set has as its target T3, ADORA2a/CHOK1 cells (Homo sapiens, UniProt P29274).
T3 construct: host or cells: CHO-K1
The data set can be described thus: Inhibitory activity for ADORA2a/CHOK1 cells (cAMP detection, adenosine as agonist). The data set is classed as cell-based. The settings on record: for inhibition at 0.1 µM: CHO-K1, 100 nM compound, read-out: Inhibition rate at 100 nM; for inhibition at 1 µM: CHO-K1, 1000 nM compound, read-out: Inhibition rate at 1000 nM. The protocol: Test Example 2: Study on Inhibitory Activity for ADORA2a/CHOK1 Cells
ADORA2a/CHOK1 cells (Cobai, CBP71017).
FBS was added to Ham's F-12 medium to a concentration of 10% (v/v), Zeocin was added to a final concentration of 200 μg/mL, and Hygromycin B was added to a final concentration of 100 μg/mL, and the resulting mixture was stored at 4° C. for later use.
A certain amount of adenosine was precisely weighed and placed into a 1.5 mL EP tube, then a certain volume of cell culture medium was added, the resulting mixture was incubated at 37° C. for dissolution, thereby a 10 mM stock solution was prepared. The stock solution was diluted with cell culture medium at 1:1000 to get 10 μM adenosine solution.
The compound to be tested was dissolved in DMSO to form a 10 mM stock solution, and the stock solution was stored in a refrigerator at 4° C. for later use. The stock solution was diluted with the 10 μM of adenosine solution to 2000 nM or 200 nM for later test.
(1) CHO-K1 cells stably expressing ADORA2A receptor were cultured in a 37° C., 5% CO2 cell incubator. When the cell confluence reached about 80%, the cells were digested by trypsin, dispersed and counted; (2) the cell concentration was adjusted to 6×10^5 cells/mL according to the counting results; (3) the cells was inoculated into a white 384-well cell culture plate at 5 μL per well (about 3000 cells/well).
All groups were provided with multiple wells, the adenosine-free cell culture medium was added to the wells of the Blank group (5 μL/well); 10 μM adenosine solution was added to the wells of the Agonist group (5 μL/well); the diluted compound was added to the wells of the test compound group (5 μL/well). After the addition of the compound was completed, the 384-well plate was centrifuged at 2500 rpm for 30 seconds to fully mix the compound and the medium, then placed in a 25° C. incubator and incubated for 30 min.
A certain volume of cAMP-d2 was taken, and diluted by adding Lysis & Detection Buffer at the ratio of 1:5 to prepare Solution A.
A certain volume of cAMP-Cryptate was taken, and diluted by adding Lysis & Detection Buffer at the ratio of 1:5 to prepare Solution B.
(2) After 30 min of incubation in step 2 was completed, addition of detection solution was carried out. The 384-well plate was taken out, 5 μL of Solution A was added to each well, and then 5 μL of Solution B was added to each well, then the 384-well plate was covered with sealing membrane, centrifuged at 2500 rpm for 30 s (to fully mix the detection solution and medium), and incubated in a thermostat at 25° C. for 1 h.
After the incubation, the 384-well plate was taken out, and detected by PHERA Star FS to read data, detection wavelength: 620 nm/665 nm.
inhibition rate %=(1−(RCompound−RBlank)/(RAgonist−RBlank))*100%
wherein, RCompound represented the R Value of the test compound group, RAgonist represented the R value of the Agonist group, and RBlank represented the R value of the Blank group.

The nature of data set [3]: Pharmacokinetics (PK) and distribution in brain tissue in rats. The format is in vivo, male SD rats. The procedure:
Test Example 3: Study on Pharmacokinetics (PK) and Distribution in Brain Tissue in Rats
The compounds of the present application were administered to male SD rats by intravenous (IV) and intragastric (PO) respectively to investigate the pharmacokinetic characteristics. The dosages of IV and PO were 1 mg/kg and 5 mg/kg, respectively. The solvent for IV was a mixture of 5% DMSO, 5% Solutol (polyethylene glycol 15-hydroxystearate) and 90% saline, and the solvent for PO was 0.5% MC (methyl cellulose sodium). Before IV administration (0 h) and at 0.083 h, 0.25 h, 0.5 h, 1 h, 2 h, 4 h, 6 h, 8 h and 24 h time points after administration, blood samples were collected; before PO administration (0 h) and at 0.25 h, 0.5 h, 1 h, 2 h, 4 h, 6 h, 8 h and 24 h time points after administration, blood samples were collected; the blood samples were anticoagulated with EDTA.K2, and centrifuged to obtain plasma samples. For Compound 11, brain tissue samples were taken and homogenized at 0.25 h, 0.5 h, 1 h, 4 h and 8 h; for Compounds 19 and 32, and brain tissue samples were taken and homogenized at 0.25 h, 0.5 h, 1 h and 8 h (three SD rats were selected for the experiment of distribution in brain tissue at each time point), and the resulting brain tissue homogenate samples were stored at −80° C. The plasma samples and brain tissue homogenate samples were subjected to precipitation of protein, and then LC-MS/MS analysis was performed.
Pharmacokinetic parameters were calculated by means of non-compartmental model by using WinNonlin 6.3 software.

pKi: −log10 of the molar value. Read-outs that look alike come from different tables or passages of the source.

T3 sequence (P29274 whole entry): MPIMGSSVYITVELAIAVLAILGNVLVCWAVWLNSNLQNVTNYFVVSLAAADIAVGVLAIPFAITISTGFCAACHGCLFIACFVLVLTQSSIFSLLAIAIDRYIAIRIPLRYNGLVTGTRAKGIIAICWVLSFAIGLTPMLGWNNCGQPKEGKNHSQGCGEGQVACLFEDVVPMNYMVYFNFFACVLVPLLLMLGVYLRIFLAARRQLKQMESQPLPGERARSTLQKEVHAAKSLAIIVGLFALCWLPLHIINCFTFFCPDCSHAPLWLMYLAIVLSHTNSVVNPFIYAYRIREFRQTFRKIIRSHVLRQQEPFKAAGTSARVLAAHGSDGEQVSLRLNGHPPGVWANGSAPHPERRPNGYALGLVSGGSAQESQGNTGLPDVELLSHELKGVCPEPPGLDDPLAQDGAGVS
T2 sequence (P29274 whole entry): as above

For orientation: pKi means the negative decadic logarithm of the Ki, by convention in mol/L. Usually inhibition stands for the drop in the measured response relative to a control, in per cent. In data set [1], `Cc1ncnc2ccc(-c3c(C#N)cc(NC(=O)N4CCOCC4)nc3-c3ccc(F)cc3)cc12` [Compound 43, N-(4-cyano-6-(4-fluorophenyl)-5-(4-methylquinazolin-6-yl)pyridin-2-yl) morpholine-4-carboxamide] showed a pKi of 6.87. In data set [2], the pKi is 8.87 and the “Ki(A1)/Ki(A2a)” value is 98.3. At ADORA2a/CHOK1 cells, the inhibition at 0.1 µM is 59.1% and the inhibition at 1 µM came to 100%.

Broadly, the bioavailability is dose-corrected exposure relative to a reference, in per cent. Read a high bioavailability as good availability. The Cmax is the maximum level reached in the sampled fluid or tissue. Consider `Cc1ncnc2ccc(-c3cc(F)c(NC(=O)N4CCOCC4)nc3-c3ccc(F)cc3)cc12` [Compound 32, N-(3-fluoro-6-(4-fluorophenyl)-5-(4-methylquinazolin-6-yl)pyridin-2-yl) morpholine-4-carboxamide], for which the results for the pKi in data set [1] and in data set [2] were 6.27 and 8.02, respectively. For the same compound, in data set [2], the “Ki(A1)/Ki(A2a)” value amounted to 56.2. The compound also came in with a bioavailability in data set [3] (male, SD, plasma, rat, oral 5 mg/kg compared with intravenous 1 mg/kg) of 80.2%. This compound also gave a Cmax in data set [3] (male, SD, rat plasma, IV, 1 mg/kg) of 1480 ng/mL. The AUC(0-t) in data set [3] (male, SD, rat plasma, IV, 1 mg/kg, read-out: AUClast) stood at 1820 ng·h/mL; in data set [3] (male, SD, rat plasma, PO, 5 mg/kg, read-out: AUClast (plasma)), 7310 ng·h/mL. The “AUClast (brain)” value in data set [3] (rat brain tissue, PO, 5 mg/kg) stood at 52.9 ng·h/g. Also, the “Plasma AUClast/brain AUClast” value in data set [3] (rat, PO, 5 mg/kg) is 138/1.

The compound `Cc1ncnc2ccc(-c3c(-c4ccc(F)cc4)nc(NC(=O)N4CCOCC4)nc3C3CC3)cc12` [Compound 44, N-(4-cyclopropyl-6-(4-fluorophenyl)-5-(4-methylquinazolin-6-yl)pyrimidin-2-yl)morpholine-4-carboxamide] showed a pKi in data set [1] of 6.03. In data set [2], the pKi is 7.84 and the “Ki(A1)/Ki(A2a)” value is recorded as 64.2. Also, at ADORA2a/CHOK1 cells, the inhibition at 0.1 µM turned out to be 64.8% and the inhibition at 1 µM amounted to 104%.

The values are drawn from US20210395226A1, “SUBSTITUTED ARYL COMPOUND AND PREPARATION METHOD THEREFOR AND USE THEREOF” (SICHUAN KELUN-BIOTECH BIOPHARMACEUTICAL CO., LTD., priority 2018, published 2021).
